# Assay results reported in patent US20040038855A1 (priority 1999, published 2004).
# Where two headings read alike, the source gives them in different places.
# Key:
# rat MCH1 receptor = biological target: T1, rat MCH1 receptor (Rattus norvegicus, UniProt P97639); test: Binding affinity (Ki) at the rat MCH1 receptor
# T1 construct: expressed in transfected cells
# [1] = biological target: T2, human Dopamine D2 receptor (Homo sapiens, UniProt P14416); test: Binding affinity at the human dopamine D2 receptor; conditions: Table 3c; read-out: hD2 Ki
# T2 construct: purchased BioSignal, Inc. (Montreal, Canada)
# In short: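 D1/D2: membranes from cells expressing human receptor, binding format. α2A, D5: receptor binding assays, conditions not detailed.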
# [2] = biological target: T3, human Histamine H1 receptor (Homo sapiens, UniProt P35367); test: Binding affinity at the human histamine H1 receptor; conditions: Table 3c; read-out: hH1 Ki
# T3 construct: expressed in transfected cells
# In short: (§1)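 Receptor binding read-out throughout; membranes expressing human D1 or D2 receptor were used for those two targets.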
# [3] = biological target: T4, human Alpha-1a Adrenergic receptor (Homo sapiens, UniProt P35348); test: Binding affinity at the human alpha-1A adrenergic receptor; conditions: Table 3c; read-out: hAlpha-1a Ki
# T4 construct: expressed in transfected cells
# T4 sequence (P35348 1-466): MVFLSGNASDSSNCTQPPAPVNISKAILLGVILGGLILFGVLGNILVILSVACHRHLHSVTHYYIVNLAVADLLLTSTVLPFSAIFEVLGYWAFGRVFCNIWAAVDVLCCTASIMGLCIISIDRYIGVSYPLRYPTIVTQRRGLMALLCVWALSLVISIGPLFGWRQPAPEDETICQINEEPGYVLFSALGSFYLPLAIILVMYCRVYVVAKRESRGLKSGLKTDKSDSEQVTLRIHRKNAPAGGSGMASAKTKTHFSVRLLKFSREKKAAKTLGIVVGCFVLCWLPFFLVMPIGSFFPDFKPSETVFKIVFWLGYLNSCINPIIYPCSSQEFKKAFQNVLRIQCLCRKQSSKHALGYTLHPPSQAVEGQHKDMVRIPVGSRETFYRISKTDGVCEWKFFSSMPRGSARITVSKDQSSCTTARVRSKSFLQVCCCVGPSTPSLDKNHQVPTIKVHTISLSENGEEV
# In short: as §1
# [4] = tested on: micturition reflex, conscious male Sprague Dawley rats; test: Continuous Slow Transvesicular Infusion (CSTI) rat model; assay type: in vivo; design: key to Effect of MCH1 antagonist in the CSTI model: B = Produced an increase in bladder capacity in rats relative to baseline capacity; conditions: bladder capacity, intragastric
# Procedure: The effects of compounds on the micturition reflex were assessed in the “distension-induced rhythmic contraction” (DIRC), as described in previous publications (e.g. Maggi et al, 1987; Morikawa et al, 1992), and Continuous Slow Transvesicular Infusion (CSTI) models in rats. Male Sprague Dawley rats weighing approximately 300 g were used for the study. Rats were anaesthetized with pentobarbitone sodium (50 mg/kg, i.p). Through a median abdominal incision, bladder was exposed and a polyethylene cannula (PE 50) was introduced into the bladder through a small cut on the dome of the bladder and the cannula was secured with a purse string suture. The other end of the cannula was exteriorized subcutaneously at the dorsal neck area. Similarly, another cannula (PE 50) was introduced into the stomach through a paramedian abdominal incision with the free end exteriorized subcutaneously to the neck region. The surgical wounds were closed with silk 4-0 suture and the animal was allowed to recover with appropriate post surgical care. On the following day, the animal was placed in a rat restrainer. The open end of the bladder cannula was connected to a pressure transducer as well as infusion pump through a three-way stopcock. The bladder voiding cycles were initiated by continuous infusion of normal saline at the rate of 100 ul/min. The repetitive voiding contractions were recorded on a Power Lab on-line data acquisition software. After recording the basal voiding pattern for an hour, the test drug or vehicle was administered directly into stomach through the intragastric catheter and the voiding cycles were monitored for 5 hours. Micturition pressure and frequency were calculated before and after the treatment (at every 30 min interval) for each animal. Bladder capacity was calculated from the micturition frequency, based on the constant infusion of 100 ul/min. The effect of the test drug was expressed as a percentage of basal, pre-drug bladder capacity. WAY 100635 was used as positive control for comparison.
# human MCH1 receptor [5] = biological target: T5, human MCH1 receptor (Homo sapiens, UniProt Q99705); test: Saturation and competition binding of [3H]Compound 10, membranes of Cos-7 cells transfected with MCH1; design: expressed in transfected cells; host or cells: COS-7; conditions: room temperature, 90 min; read-out: Kd (Scatchard analysis of saturation binding)
# Procedure: Saturation equilibrium binding of [3H]Compound 10 to the human MCH1 receptor. Membrane preparations from Cos-7 cells transfected with MCH1 were incubated with varying concentrations of [3H]Compound 10 (SA: 56 Ci/mmol) at room temperature for 90 min, in a volume of 0.250 ml. The reaction was terminated by filtration in GF/C filters, and the radioactivity determined by scintillation counting. Non-specific binding was defined as the amount of radioactivity retained in the filter after incubating the reaction mixture in the presence of unlabeled Compound 10 ([…]).
# Competition binding of [3H]Compound 10 to the human MCH1 receptor. […] The reaction was terminated by filtration in GF/C filters and the radioactivity bound to the membrane was determined by scintillation counting.
# [3H]Compound 10 was tested for its ability to bind to membrane preparations of cells expressing the human MCH1 receptor.
# human MCH1 receptor [6] = biological target: T5, human MCH1 receptor; assay type: cell-based; design: expressed in transfected cells; host or cells: COS-7; conditions: agonist challenge
# Procedure: Guidelines for cell preparation and assay of the second messenger inositol phosphate (IP) are described below for a typical protocol involving transiently transfected Cos-7 cells; For a 96 well microplate format assay, cells are plated at 70,000 cells per well and allowed to incubate for 24 hours after the transfection procedure. The cells are then labeled with 0.5 μCi [^3H]myo-inositol per micro-well over night at 37° C., 5% CO2. Immediately before the assay, the medium is removed and replaced with 90 μl PBS containing 10 mM LiCl. The plates are then incubated for 15 minutes at 37° C., […]. Following the incubation, the transfectants are challenged with agonist (10 μl/well; 10× concentration) for 30 minutes at 37° C., 5% CO2. The challenge is terminated and the cells lysed by the addition of 100 μl cold 5% v/v trichloroacetic acid (TCA), followed by an incubation at 4° C. for greater than 30 minutes. Total IPs are isolated from the lysate by ion exchange chromatography. Briefly, the lysed contents of the wells are transferred to a Multiscreen HV filter plate (Millipore) containing 100 μl Dowex AG1-X8 suspension (50% v/v, water:resin) (200-400 mesh, formate form). The filter plates are placed on a vacuum manifold to wash and elute the resin bed. Each well is first washed 2 times with 200 μl 5 mM myoinositol. Total [^3H]IPs are eluted with 75 μl of 1.2 M ammonium formate/0.1 M formic acid into Wallac 96-well plates. 200 μl of SuperMix scintillation cocktail is added to each well, mixed well, allowed to equilibrate and counted on a Micro Beta Trilux scintillation counter. (Note: The assay may be scaled to a 24 well format by simple adjustment of reagent volumes and employing individual chromatographic columns.)
# The expression vector (pEXJ) containing the MCH1 cDNA was transfected by electroporation into Cos-7 cells in combination with an expression vector (pEXJ) containing the Gα16 subunit.
# [7] = Examples 38-141, read-out: Ki (nM) rMCH1
# T3 sequence (P35367 whole entry): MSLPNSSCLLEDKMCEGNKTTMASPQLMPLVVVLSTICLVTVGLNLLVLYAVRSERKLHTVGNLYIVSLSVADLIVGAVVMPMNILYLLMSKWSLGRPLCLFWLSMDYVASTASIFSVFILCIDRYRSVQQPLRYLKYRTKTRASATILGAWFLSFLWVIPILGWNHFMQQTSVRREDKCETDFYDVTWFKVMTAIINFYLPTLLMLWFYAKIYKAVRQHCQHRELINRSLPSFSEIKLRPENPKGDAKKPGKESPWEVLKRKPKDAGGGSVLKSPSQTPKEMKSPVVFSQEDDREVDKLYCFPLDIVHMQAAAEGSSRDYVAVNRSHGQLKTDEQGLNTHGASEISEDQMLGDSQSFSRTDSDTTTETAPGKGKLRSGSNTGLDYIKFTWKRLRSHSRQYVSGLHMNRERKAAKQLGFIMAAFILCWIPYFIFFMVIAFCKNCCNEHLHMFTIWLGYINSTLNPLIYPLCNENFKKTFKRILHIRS
# T2 sequence (P14416 whole entry): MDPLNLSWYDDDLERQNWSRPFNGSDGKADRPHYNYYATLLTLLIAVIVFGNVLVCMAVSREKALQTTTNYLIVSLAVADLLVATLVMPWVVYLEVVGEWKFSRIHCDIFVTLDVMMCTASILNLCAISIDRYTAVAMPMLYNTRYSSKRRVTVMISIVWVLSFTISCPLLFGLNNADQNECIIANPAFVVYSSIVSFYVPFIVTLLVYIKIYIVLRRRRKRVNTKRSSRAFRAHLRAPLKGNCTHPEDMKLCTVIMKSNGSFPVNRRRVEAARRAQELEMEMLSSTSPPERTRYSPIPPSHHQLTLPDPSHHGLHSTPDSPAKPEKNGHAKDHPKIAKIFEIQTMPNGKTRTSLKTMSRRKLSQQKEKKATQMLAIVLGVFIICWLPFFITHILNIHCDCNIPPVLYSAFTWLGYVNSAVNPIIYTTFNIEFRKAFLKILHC
# T1 sequence (P97639 whole entry): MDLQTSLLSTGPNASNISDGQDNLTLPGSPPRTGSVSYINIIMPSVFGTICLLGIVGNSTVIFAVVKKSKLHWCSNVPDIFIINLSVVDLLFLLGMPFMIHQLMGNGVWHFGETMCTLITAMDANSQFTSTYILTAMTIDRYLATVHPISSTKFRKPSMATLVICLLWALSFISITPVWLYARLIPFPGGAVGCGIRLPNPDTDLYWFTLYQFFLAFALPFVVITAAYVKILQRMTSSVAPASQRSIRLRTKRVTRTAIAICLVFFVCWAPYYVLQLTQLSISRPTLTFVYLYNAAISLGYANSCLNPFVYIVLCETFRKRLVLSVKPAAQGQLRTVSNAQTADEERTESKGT
# T5 sequence (Q99705 whole entry): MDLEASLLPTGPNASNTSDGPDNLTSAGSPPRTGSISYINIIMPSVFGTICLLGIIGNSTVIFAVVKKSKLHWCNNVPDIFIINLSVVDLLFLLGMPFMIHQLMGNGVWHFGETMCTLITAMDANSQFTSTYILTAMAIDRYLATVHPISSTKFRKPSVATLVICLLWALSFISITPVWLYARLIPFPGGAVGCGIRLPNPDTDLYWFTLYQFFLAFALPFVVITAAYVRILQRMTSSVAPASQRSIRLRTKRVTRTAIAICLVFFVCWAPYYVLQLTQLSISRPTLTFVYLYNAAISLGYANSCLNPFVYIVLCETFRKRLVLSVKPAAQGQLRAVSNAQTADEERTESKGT
Compound,Ki (rat MCH1 receptor; [7]) [nM],"Ki (rat MCH1 receptor; Table 3c, read-out: rMCH1 Ki) [nM]",Ki [1] [nM],Ki [2] [nM],Ki [3] [nM],Effect of MCH1 antagonist in the CSTI model [4],Kd (human MCH1 receptor [5]) [nM],dose-responsiveness of inositol phosphate formation (human MCH1 receptor [6])
"COCC1=C(C(=O)OC)[C@H](c2ccc(F)c(F)c2)N(C(=O)NCCCN2CCC(c3cccc(NC(=O)C(C)C)c3)CC2)C(=O)N1 [Example 43, METHYL (4S)-4-(3,4-DIFLUOROPHENYL)-3-{[(3-{4-[3-(ISOBUTYRYLAMINO)PHENYL]-1-PIPERIDINYL}PROPYL)AMINO]CARBONYL}-6-(METHOXYMETHYL)-2-OXO-1,2,3,4-TETRAHYDRO-5-PYRIMIDINECARBOXYLATE]",0.23,0.23,3570,10800,21.9,B,–,–
Cc1ccc(C(=O)CCCN2CCC(c3cccc(NC(=O)C(C)C)c3)CC2)cc1C [Example 58],3.9,3.9,2840,700,32.1,B,–,–
CC(C)C(=O)Nc1cccc(C2CCN(CCCC(=O)c3ccc(Cl)cc3)CC2)c1 [Example 66],2.8,2.8,862,461,19.4,B,–,–
"COCC1=C(C(=O)OC)[C@H](c2ccc(F)c(F)c2)N(C(=O)NCCCN2CCC(c3cccc(NC(C)=O)c3)CC2)C(=O)N1 [[3H]Compound 10, TRITIATED METHYL (4S)-3-{[(3-{4-[3-(ACETYLAMINO)PHENYL]-1-PIPERIDINYL}PROPYL)AMINO]CARBONYL}-4-(3,4-DIFLUOROPHENYL)-6-(METHOXYMETHYL)-2-OXO-1,2,3,4-TETRAHYDRO-5-PYRIMIDINECARBOXYLATE]",–,–,–,–,–,–,0.18,–
O=C(CCCN1CCC(O)(c2ccc(Cl)cc2)CC1)c1ccc(F)cc1 [haloperidol],–,–,–,–,–,–,–,No dose-responsiveness
dynorphin A1-13: compound tested for its ability to activate MCH1 (YGGFLRRIRPKLK),–,–,–,–,–,–,–,No dose-responsiveness
